According to BindingDB's records for doi:10.1021/acs.jmedchem.8b00159 (China Pharmaceutical University, 2018):

Assays:
[1] = molecular target: T1, Isocitrate dehydrogenase [NADP] cytoplasmic (Homo sapiens, UniProt O75874); experiment: Inhibition of IDH1 R132C mutant (unknown origin) assessed as reduction in NADPH consumption using alpha-KG as substrate incubated for 60 mins by diaphorase and resazurin dye based assay
Target sequence in this assay (O75874 2-414 R132C limits assumed): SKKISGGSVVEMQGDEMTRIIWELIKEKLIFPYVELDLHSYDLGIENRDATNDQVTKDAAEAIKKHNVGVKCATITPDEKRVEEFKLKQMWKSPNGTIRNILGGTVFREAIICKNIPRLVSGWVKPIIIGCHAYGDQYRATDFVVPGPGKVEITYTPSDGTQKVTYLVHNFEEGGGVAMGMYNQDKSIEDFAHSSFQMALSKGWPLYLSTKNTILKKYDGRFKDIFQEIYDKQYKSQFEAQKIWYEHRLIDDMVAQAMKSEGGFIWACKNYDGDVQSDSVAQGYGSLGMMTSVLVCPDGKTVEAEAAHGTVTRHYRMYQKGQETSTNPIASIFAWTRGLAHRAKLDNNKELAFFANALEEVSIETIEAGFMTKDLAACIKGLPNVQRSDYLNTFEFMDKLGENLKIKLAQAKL

[2] = molecular target: T2, Isocitrate dehydrogenase [NADP], mitochondrial (Homo sapiens, UniProt P48735); experiment: Inhibition of IDH2 R140Q mutant (unknown origin) assessed as reduction in NADPH consumption using alpha-KG as substrate incubated for 60 mins by diaphorase and resazurin dye based assay
T2 sequence (P48735 whole entry): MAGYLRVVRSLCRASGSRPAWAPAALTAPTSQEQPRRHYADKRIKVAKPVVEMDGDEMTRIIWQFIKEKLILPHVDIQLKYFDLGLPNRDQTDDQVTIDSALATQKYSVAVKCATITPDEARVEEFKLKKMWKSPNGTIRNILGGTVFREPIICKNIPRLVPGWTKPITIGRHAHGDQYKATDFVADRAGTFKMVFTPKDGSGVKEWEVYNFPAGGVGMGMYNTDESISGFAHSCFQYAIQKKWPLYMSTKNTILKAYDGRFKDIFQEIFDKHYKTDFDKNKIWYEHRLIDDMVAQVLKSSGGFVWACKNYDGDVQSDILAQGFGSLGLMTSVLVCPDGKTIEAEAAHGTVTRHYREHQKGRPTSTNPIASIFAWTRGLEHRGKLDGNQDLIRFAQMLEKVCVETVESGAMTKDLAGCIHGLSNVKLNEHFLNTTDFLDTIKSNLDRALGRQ

[3] = molecular target: T1, Isocitrate dehydrogenase [NADP] cytoplasmic; experiment: Inhibition of IDH1 R132H mutant (unknown origin) assessed as reduction in NADPH consumption using alpha-KG as substrate incubated for 60 mins by diaphorase and resazurin dye based assay
Target sequence in this assay (O75874 2-414 R132H limits assumed): as the sequence (O75874 2-414 R132C limits assumed) above, with C131H counted along it

IC50 [1] [nM] | IC50 [2] [nM] | IC50 [3] [nM] | Compound
< 50 | < 50 | < 50 | CC(F)(F)c1cccc(-c2nc(NC3CCC(F)(F)C3)nc(NC3CCC(F)(F)C3)n2)n1 (configuration not stated) [US10028961, Compound 105]
< 50 | < 50 | < 50 | C[C@@H](Nc1nc(N[C@H](C)C2CC2)nc(-n2ccc(C(F)(F)F)n2)n1)C1CC1 [US10028961, Compound 121]
< 50 | < 50 | < 50 | FC1(F)CC(Nc2nc(NC3CC(F)(F)C3)nc(-c3nc(C(F)(F)F)cs3)n2)C1 [US10028961, Compound 128]
< 50 | < 50 | < 50 | FC1(F)CCC(Nc2nc(NC3CCC(F)(F)CC3)nc(-c3cncc(C(F)(F)F)n3)n2)CC1 [US10028961, Compound 160]
